Results reported in patent publication US8969361B2, “Cyclopropanecarboxylate esters of purine analogues” (Annji Pharmaceutical Co., Ltd., priority 2012, dated 2015).
≈ marks a conversion by molar mass, not a printed value. Where two headings read alike, the source gives them in different places.

Columns and labels:
[1] = Hydrolytic stability in buffer solutions of various pH (HPLC); format: physicochemical; details: phosphate-buffered solution, read-out: half life value (T1/2), hydrolytic stability (converted)
From the text: Hydrochloric acid of 0.1 N was used for pH 1 solution. Samples were repeatedly, manually injected onto HPLC at specific time intervals at room temperature. The peak areas of the compounds were monitored by UV detection. […] The “half life value, T1/2,” means the time required for one-half of the total amount of a compound in a solution to be degraded by hydrolysis processes when the rate of removal is nearly exponential. […] A first order calculation was used to determine the rate constant for each buffer on the loss of peak area over time.

[2] = Aqueous solubility (HPLC); format: physicochemical; details: thermodynamic from solid, water
Experimental: The solubility experiment procedure was modified due to chemical stabilities. Briefly, an excess of a test compound was added 0.5 mL of water in an one mL of vial, pre-equilibrated, and then sonicated at 23° C. for 3 min. Aliquots were filtered and analyzed for drug contents. The concentration of each compound was determined by HPCL, at λ=254 nm, 23° C. The aliquot containing the analyte was diluted 100× due to the detection limit of the instrument.

HSV-1 [3] = experiment: Attenuation of HSV-1 induced cytopathic effects on Vero cells; format: cell-based; details: HSV-1 at 10^-4 titration, treated 4 days, different concentrations
Experimental: Human epithelial (HEp-2) cells were cultured in MEM supplemented with 10% fetal calf serum and 10% heat activated newborn calf serum. Vero cells were cultured in RPMI-1640 and 10% heat activated newborn calf serum. Penicillin (1000 I.U./ml), streptomycin (100 μg/ml), and bicarbonate buffer were present in the medium, and cells were maintained at 37° C., 5% CO2, humidified atmosphere, and subcultured 2˜3 times a week.
The antiviral activity of Compound 3 was determined by evaluating the attenuation in HSV-1 induced cytopathic effects on Vero cells. Vero cells (10,000 cells/well) in a 96-well culture plate were infected with an increasingly diluted HSV-1 virus solution (10^−3 to 10^−5) in L15 medium. After 2 h incubation the unadsorbed virus was removed, the cell monolayer was washed with PBS. […] Every 24 hr the cytopathic effects were observed and photographed under microscope (FIG. 2). Anti-HSV-1 activity was determined by inhibition of cytopathic effect as compared with control. The cytopathic effects effects after HSV-1 propagation HSV-1 between Vero cells were quantified in terms of 50% tissue culture infective dose (TCID50, which was used to determine the infectious titer of HSV-1 which can cause cytopathic effects in culture).

HSV-1 [4] = experiment: Herpetic keratitis in mice with cornea inoculated by HSV-1 (eye-drops); format: in vivo, Balb/c mice; details: eye-drops 0.34% or 0.2% w/v in saline, 3 times a day; for corneal cloudiness, vehicle-treated group versus treated group: day-14; for severity of ocular disease symptoms (corneal clouding, stromal keratitis, blepharitis): day-21
Experimental: The effect of Compound 3 on herpetic keratitis was investigated in mice with cornea inoculated by HSV-1. Balb/c mice (eight weeks old, 25 g body weight) were anesthetized with isoflurane, and epithelium of both right and left corneas lightly scratched in a cross-hatch pattern (four horizontal and four vertical scratches) with a 26-gauge needle under a microscope. The mouse cornea was inoculated with 5 μL of HSV-1 suspension containing 2.5×10^6 plaque-forming units (PFU), or saline for control. After the inoculations, mice were assigned randomly to treatment groups (4˜5 mice per group), with both eyes treated with Compound 3 or ganciclovir or vehicle (saline) after lightly anaesthetized. Eight hours after HSV-1 inoculation, 1 drop (10 μl) of 0.34% or 0.2% w/v solution of compound 3 or ganciclovir in saline with anti-fungi agent (0.05 w/v amphotericin-B) was applied to each eye daily, 3 times a day. The keratitis was graded, recorded and scored daily for 21 days, and the eyes were examined with a microscopic camera at frequent intervals.

Vero cells = experiment: Toxicity to Vero cells; format: cell-based
[5] = 23° C., sonicated 3 min, read-out: aqueous solubility

SMILES | half-life at 1 mg/mL ([1]; pH 7.4, 40° C.) | solubility at 3 min [2, 5] | further results
CC1CC1(N)C(=O)OCC(CO)OCn1cnc2c(=O)[nH]c(N)nc21 (stereo not drawn) [Compound 8, 1-Amino-2-methyl-cyclopropanecarboxylic acid 2-(2-amino-6-oxo-1,6-dihydro-purin-9-ylmethoxy)-3-hydroxypropyl ester] | 2.42 days | – | –
Nc1nc2c(ncn2COC(CO)COC(=O)C2(N)CC2c2ccccc2)c(=O)[nH]1 (stereo not drawn) [Compound 6, 1-Amino-2-phenyl-cyclopropanecarboxylic acid 2-(2-amino-6-oxo-1,6-dihydro-purin-9-ylmethoxy)-3-hydroxypropyl ester] | 3.12 days | 170 mg/mL (≈ 410 mM) | –
Nc1nc2c(ncn2COC(CO)COC(=O)C2(N)CC2)c(=O)[nH]1 (stereo not drawn) [Compound 3, 1-amino-cyclopropanecarboxylic acid 2-(2-amino-6-oxo-1,6-dihydro-purin-9-ylmethoxy)-3-hydroxypropyl ester] | 2.21 days | 180 mg/mL (≈ 532 mM) | melting point: > 300 °C; half-life at 1 mg/mL ([1]; acidic solution (pH 4), 40° C.): > 12.5 days; cytopathogenic effects of HSV-1 on Vero cells (morphological evaluation) (HSV-1 [3]): reduced the cytopathogenic effects of HSV-1 on Vero cells in a concentration-dependent manner; corneal cloudiness, vehicle-treated group versus treated group (HSV-1 [4]): much more significant; severity of ocular disease symptoms (corneal clouding, stromal keratitis, blepharitis) (HSV-1 [4]): eliminated the extra-ocular keratitis morphologies almost entirely; toxicity to Vero cells (Vero cells): nontoxic to Vero cells
CNC1(C(=O)OCC(CO)OCn2cnc3c(=O)[nH]c(N)nc32)CC1 (stereo not drawn) [Compound 4, 1-Methylamino-cyclopropanecarboxylic acid 2-(2-amino-6-oxo-6-dihydro-purin-9-ylmethoxy)-3-hydroxypropyl ester] | – | 227 mg/mL (≈ 644 mM) | –
Nc1nc2c(ncn2COC(CO)COC(=O)C2(N)CC2c2ccc(Br)cc2)c(=O)[nH]1 (stereo not drawn) [Compound 5, 1-Amino-2-(4-bromo-phenyl)-cyclopropanecarboxylic acid 2-(2-amino-6-oxo-1,6-dihydro-purin-9-ylmethoxy)-3-hydroxypropyl ester] | 3.54 days | 155 mg/mL (≈ 314 mM) | –
Nc1nc2c(ncn2COC(CO)COC(=O)C2(N)CC2c2ccco2)c(=O)[nH]1 (stereo not drawn) [Compound 10, 1-Amino-2-furan-2-yl-cyclopropanecarboxylic acid 2-(2-amino-6-oxo-1,6-dihydro-purin-9-ylmethoxy)-3-hydroxypropyl ester] | 1.21 days | 260 mg/mL (≈ 643 mM) | –
Nc1nc2c(ncn2COC(CO)COC(=O)C2(N)CC2C(F)(F)F)c(=O)[nH]1 (stereo not drawn) [Compound 9, 1-Amino-2-trifluoromethyl-cyclopropanecarboxylic acid 2-(2-amino-6-oxo-1,6-dihydro-purin-9-ylmethoxy)-3-hydroxypropyl ester] | 1.38 days | 261 mg/mL (≈ 642 mM) | –
Nc1nc2c(ncn2COC(CO)COC(=O)C2(N)CC2c2ccccn2)c(=O)[nH]1 (stereo not drawn) [Compound 11, 1-Amino-2-pyridin-2-yl-cyclopropanecarboxylic acid 2-(2-amino-6-oxo-1,6-dihydro-purin-9-ylmethoxy)-3-hydroxypropyl ester] | 1.79 days | 253 mg/mL (≈ 609 mM) | –
CC1(C)CC1(N)C(=O)OCC(CO)OCn1cnc2c(=O)[nH]c(N)nc21 (stereo not drawn) [Compound 7, 1-Amino-2,2-dimethyl-cyclopropanecarboxylic acid 2-(2-amino-6-oxo-1,6-dihydro-purin-9-ylmethoxy)-3-hydroxypropyl ester] | 2.83 days | 213 mg/mL (≈ 581 mM) | melting point: > 300 °C
Nc1nc(O)c2ncn(COC(CO)CO)c2n1 [ganciclovir, reference compound] | – | – | solubility at 3 min ([2]; 23 °C): 2.6 mg/mL (≈ 10.2 mM); corneal cloudiness, vehicle-treated group versus treated group (HSV-1 [4]): much more significant; severity of ocular disease symptoms (corneal clouding, stromal keratitis, blepharitis) (HSV-1 [4]): reduced the severities in stromal keratitia and corneal clouding dramatically, but blephartitis still existed; toxicity to Vero cells (Vero cells; concentrations used in the antiviral test): nontoxic to Vero cells
